The target in test [1] is T1, Langerin extracellular domain (ECD) (Homo sapiens, UniProt Q9UJ71).
T1 construct: the trimeric Langerin extracellular domain (ECD) was expressed insolubly in E; made in house
As to the kind of experiment: 19F R2-filtered NMR reporter displacement assay with Langerin. Particulars: for Ki: 19F R2-filtered NMR, 0.1 mM reporter ligand 24, pH 7.8, 25 °C; for Relative potency, Langerin: calculated utilizing the KI value determined for GlcNAc. The format is binding. The protocol:
Receptor Expression and Purification
General remarks. Codon-optimized genes for the expression of Langerin and DC-SIGN in E. coli were purchased from GenScript and Life Technologies, respectively. All growth media or chemicals used for receptor expression and purification were purchased from Carl Roth if not stated otherwise.
Langerin extracellular domain. Expression and purification were conducted as previously published14. Briefly, the trimeric Langerin extracellular domain (ECD) was expressed insolubly in E. coli BL21* (DE3) (Invitrogen). Following enzymatic cell lysis, inclusion bodies were harvested and subsequently solubilized. The sample was centrifuged and the Langerin ECD was refolded overnight via rapid dilution. Next, the sample was dialyzed overnight, centrifuged and purified via mannan-agarose affinity chromatography (Sigma Aldrich). For 19F R2-filtered NMR and lipid-enzyme-linked lectin assay (Lipid-ELLA) experiments, the buffer was exchanged to 25 mM Tris with 150 mM NaCl and 5 mM CaCl2 at pH 7.8 using 7 kDa size-exclusion desalting columns (Thermo Scientific). For […]
D2O, 150 mM NaCl and 5 mM CaCl2 at pH 7. The concentration of Langerin ECD was determined via UV spectroscopy (A280, 0.1% = 2.45). Purity and monodispersity of Langerin ECD samples were analyzed via SDS PAGE and DLS. […]
General remarks. 19F R2-filtered NMR experiments were conducted on a PremiumCompact 600 MHz spectrometer (Agilent). Spectra were processed in MestReNova and data analysis was performed with OriginPro 13, 15. Experiments with the Langerin ECD were performed at a receptor concentration of 50 μM in 25 mM Tris with 10% D2O, 150 mM NaCl and 5 mM CaCl2 at pH 7.8 and 25° C. […]
10% D2O, 150 mM NaCl and 5 mM CaCl2 at pH 7.0 and 25°C. TFA served as an internal reference at a concentration of 50 μM. Apparent relaxation rates R2,obs for the reporter ligand were determined using the CPMG pulse sequence as previously published3-5. […]
KI determination. KI values were determined as previously published for Langerin3. Briefly, titration experiments were conducted at a concentration of 0.1 mM of reporter ligand 24 at five competitor concentrations [I]T. Samples were prepared via serial dilution. For the acids GlcNS, GlcNAc-6-OS and GlcNS-6-OS the pH values were monitored and adjusted to 7.8 if necessary.
General remarks. 15N HSQC NMR experiments were conducted on an Ascend 700 MHz spectrometer (Bruker)16. Spectra were processed in NMRPipe17. Data analysis was performed using CCPN Analysis, MatLab and OriginPro15, 18-19. Experiments with the Langerin CRD were performed at a receptor concentration of 100 μM in 25 mM HEPES with 10% D 2O, 150 mM NaCl and 5 mM CaCl2 at pH 7.8 and 25° C. DSS-d6 served as an internal reference at a concentration of 100 μM. Spectra were referenced via the internal spectrometer reference. Spectra were acquired with 128 increments and 32 scans per increments for 150 μl samples in 3 mm sample tubes. The relaxation delay d1 was set to 1.4 s and the acquisition time tacq was set to 100 ms. The W5 Watergate pulse sequence was used for solvent suppression20. The used resonance assignment for the Langerin CRD has been published […]
KD determination. KD values were determined in titration experiments at six ligand concentrations [L]T. Samples were prepared via serial dilution. Chemical shift perturbations CSPs for Langerin CRD resonances in the fast or fast-to-intermediate exchange regime observed upon titration with ligand were calculated via Equation 121.

Another test deals with Langerin^– THP-1 cells. As to the kind of experiment: Colorimetric cytotoxicity assay, Langerin- THP-1 cells. Type of test: cell-based, human. Particulars: doxorubicin encapsulated in liposomes or free, 48 h. The method, then: (§1) the PEG-DSPE was substituted with glycolipids 22 or 23 at varying ratios. PEG-DSPE (3.0 kDa, NOF Europe), 22 or 23 were dissolved in DMSO, added to a round bottom flask and lyophilized. Next, DSPC (NOF Europe) and cholesterol (Sigma Aldrich) were dissolved in chloroform, added to the test tube and the solvent was removed in vacuo. The residue was dissolved in PBS and the mixture was vortexed and sonicated repeatedly until a homogeneous suspension was obtained. Unilamellar liposomes were prepared using a pore extruder (Avanti Polar Lipids) with polycarbonate membranes of 800, 400, 200 and finally 100 nm pore size (Avanti Polar Lipids). […]
(§2) The Lipid-ELLA was conducted as previously published35. […] Binding of the Langerin ECD was detected via absorbance A450 measurements at 450 nm using a SpectraMax spectrometer (Molecular Devices) in three independent titrations.
(§3) CO2. […] After centrifugation at 400 g for 5 min the supernatant was analyzed in the TNF-α ELISA. […]
(§4) To assess the cytotoxicity of doxorubicin-containing liposomes with THP-1 cells, 50,000 cells per well were added to 96 well microtiter plates (Corning) and incubated in presence of liposomes at a given total lipid concentration [Lipid]T in a final volume of 100 μl for 48 h at 37°C and 5% CO2. Cell viability was analyzed using CellTiter 96 (Promega) by measuring formazan absorbance at 490 nm. […]

Another test concerns Langerin^+ THP-1 cells. As to the kind of experiment: Colorimetric cytotoxicity assay, Langerin+ THP-1 cells. The format is cell-based, human. Particulars: doxorubicin encapsulated in liposomes or free, 48 h. The protocol: as §1, §2, §3, §4

Data on seven compounds can be found in paper PMC6535779, “A Specific, Glycomimetic Langerin Ligand for Human Langerhans Cell Targeting” (ACS Central Science, 2019).

Structures are written as SMILES.

By Ki is commonly meant a dissociation constant, usually derived from enzyme kinetics or from competition with a known ligand. Higher therefore signals a looser hold on the target.

T1 sequence (Q9UJ71 65-328 limits assumed): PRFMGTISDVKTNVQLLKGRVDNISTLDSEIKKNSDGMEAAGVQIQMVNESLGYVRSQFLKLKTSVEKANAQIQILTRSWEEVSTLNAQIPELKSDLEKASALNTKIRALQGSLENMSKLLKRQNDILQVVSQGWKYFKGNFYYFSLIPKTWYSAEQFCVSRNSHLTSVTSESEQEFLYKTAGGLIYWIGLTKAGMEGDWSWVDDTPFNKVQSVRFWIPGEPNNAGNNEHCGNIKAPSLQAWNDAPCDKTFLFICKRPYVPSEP

Consider `Cc1ccc(S(=O)(=O)N[C@H]2[C@H](OCCN)O[C@H](CO)[C@@H](O)[C@@H]2O)cc1` [compound 15], for which the “affinity increase over Man-based reference molecule 21” value in test [1] (from KI values, Langerin, b47 words it as over natural glycans) is on record as 42 fold.
In the case of `CC(=O)N[C@@H]1[C@@H](O)[C@H](O)[C@@H](CO)O[C@H]1O` [GlcNAc, N-acetyl glucosamine], in test [1], the Ki is 4100 ± 700 µM and the “Relative potency, Langerin” value was 1.0.
Consider `COc1cccc2c1C(=O)c1c(O)c3c(c(O)c1C2=O)C[C@@](O)(C(=O)CO)C[C@@H]3O[C@H]1C[C@H](N)[C@H](O)[C@H](C)O1` [free doxorubicin, doxorubicin], for which, in the test with Langerin^– THP-1 cells, the “killing of Langerin^– THP-1 cells” value is “killed both Langerin^+ and Langerin^– cells”. In the test on Langerin^+ THP-1 cells, the “killing of Langerin^+ THP-1 cells” value was “killed both Langerin^+ and Langerin^– cells”.
Regarding `OC[C@H]1OC(O)[C@H](O)[C@@H](O)[C@@H]1O` (stereo partly shown) [Glc], in test [1], affinity was put at a Ki of 21000 ± 4000 µM and the “Relative potency, Langerin” value is listed as 0.20.
The corresponding values for `O=S(=O)(O)N[C@H]1C(O)O[C@H](CO)[C@@H](O)[C@@H]1O` (stereo partly shown) [GlcNS, glucosamine-2-sulfate] are 1400 ± 200 µM and 2.9.
The corresponding values for `CC(=O)N[C@H]1C(O)O[C@H](COS(=O)(=O)O)[C@@H](O)[C@@H]1O` (stereo partly shown) [GlcNAc-6-OS, N-acetyl glucosamine-6-sulfate] are 600 ± 100 µM and 6.8.
As to `O=S(=O)(O)N[C@H]1C(O)O[C@H](COS(=O)(=O)O)[C@@H](O)[C@@H]1O` (stereo partly shown) [GlcNS-6-OS, glucosamine-2-sulfate-6-sulfate], in test [1], the affinity, expressed as Ki, was 280 ± 60 µM and the “Relative potency, Langerin” value was 14.
